Structures are written as SMILES. Starred links: 1 amine or outer side, 2 acyl side, 3 side chain; linkers in the order of their positions; H or OH if unused. Positions of bridges follow the written chain, without caps; N, C: chain ends. Non-standard residues stand in square brackets, D forms with d. Residues, ends and D or L forms follow the SMILES beside them. Chains are numbered I, II in the order given. *: point of attachment. Actinocin(9to1) = Cc1c2oc3c(C)ccc(C(=O)[*:1])c3nc-2c(C(=O)[*:2])c(N)c1=O; NMeV = CN[CH](C(=O)O)C(C)C; Cbz = O=C(OCc1ccccc1)*; Sar = CNCC(=O)O

The first data set can be described thus: method code SF, from Hansch, C. & Leo, A. (1987). Log P database [Dataset]. Pomona College Medicinal Chemistry Project.
Details: not given
One may read the logP as a log measure of how a compound divides between an organic and an aqueous phase. Read a high logP as a more lipophilic compound. For `CN(C(=O)CC[N+](=O)[O-])c1ccc(S(=O)(=O)N(C)C)cc1`, the logP was found to be 0.3. In turn, `O=C1CCC2CCCCC2C1` (centres undefined) yielded a log partition coefficient (logP) of 1.97. Consider `O=C1C=CC(=NBr)C=C1`, for which the lipophilicity (logP) stood at 1.12. With `C[C@@H]1C[C@@H]([C@H](O)CC2CC(=O)NC(=O)C2)C(=O)[C@@H](C)C1`, the logP was determined as 0.55. Consider `CSC(=O)Nc1ccc(Cl)c(Cl)c1`, for which the logP is 4.23.

As for `FC(F)(F)Oc1ccccc1`, the log partition coefficient (logP) stood at 3.17.

`COc1cc(C=O)ccc1OCCO` came in with a log partition coefficient (logP) of 0.58. `COc1cccc(NC(C)=O)c1` had a logP of 1.28. Consider `CC1=Nc2cccc(Cl)c2S(=O)(=O)N1`, for which the logP was 0.62.

`Cc1ccco1` yielded a logP of 1.85. On the same count and under the same terms, next, `CNP(=O)(OC)Oc1ccc(SC)cc1` (centres undefined): 1.81; `CON(C)C(=O)Nc1ccc2c(c1)Cc1ccccc1-2`: 3.67; `CCOC(=O)NC`: 0.34. Molecule `COC(=O)C[C@](O)(CCC(C)(C)O)C(=O)O[C@@H]1C(OC)=C[C@]23CCCN2CCc2cc4c(cc2[C@H]13)OCO4` displayed a logP of 0.65. On the same count and under the same terms, as for `O=S1(=O)NC(C2CC2)=Nc2cc(Cl)ccc21`, the figure is 1.98; as for `CC1=Nc2c(Cl)cccc2S(=O)(=O)N1`, 0.72.

`O=c1cc[nH]cn1`: the logP was -1.38. In turn, `C[C@]12CCC(=O)C=C1CC[C@@H]1[C@@H]2CC[C@]2(C)C(=O)CC[C@@H]12` had a logP of 2.75. The same measure, in the same setting: as for `NC(=O)CBr`, the figure is -0.52; as for `CCCCCC(=O)Nc1ccccc1`, 3.28. Regarding `CCOC(=O)OCC`, the logP stood at 1.21. On the same count and under the same terms, next, `CCCCCCCCOC(=O)c1ccccc1C(=O)OCCCCCCCC`: 5.22; `O=S(=O)(c1ccccc1)C(F)(F)F`: 2.69; `CN(C)CCCc1ccco1`: 2.08. The same measure, in the same setting: as for `COc1ccc(C(N)=O)cc1`, the figure is 0.86. `COc1ccc(CN(CCN(C)C)c2ccccn2)cc1` had a log partition coefficient (logP) of 2.85. In the case of `CCCCC(=O)c1ccc[nH]1`, the logP was found to be 2.42. Consider `c1nnn[nH]1`, for which the logP was -0.6. Regarding `O=NN(CCCl)C(=O)NC(C(=O)O)C1CCCCC1` (centres undefined), the logP is -0.63. Take `CC(=O)C(=Cc1ccc(F)cc1)C(C)=O`: the logP was 1.65. As for `CC(=O)Nc1ccc2c(c1)S(=O)(=O)c1ccc(C)cc1C2=O`, the logP stood at 2.76.

On to `C1COCCO1`, for which the logP is -0.27. With `CN(C)C(=O)COc1ccccc1`, the log partition coefficient (logP) amounted to 0.78. Same read-out and setting: next, `CC(C)C(NC(=O)OCc1ccccc1)C(=O)NC(Cc1ccc(O)cc1)C(=O)O` (stereo not drawn) (Cbz-Val-Tyr-OH; configuration not given here): 2.43; `NC(=S)NN=Cc1cccc(O)c1`: 1.61.

`CN(C(=O)CCCl)c1ccc(S(=O)(=O)N(C)C)cc1` gave a logP of 0.98.

In turn, `ICCCc1ccccc1` showed a lipophilicity (logP) of 3.9.

`CC(=O)Nc1ccc(C(N)=O)cc1` came in with a logP of 0.01. On the same count and under the same terms, next, `O=C(O)c1csc(C=Cc2ccc([N+](=O)[O-])o2)n1`: -0.03. Molecule `Fc1c(F)c(F)c(F)c(F)c1F` returned a logP of 2.22. Same read-out and setting: as for `COC(=O)c1ccccc1Cl`, the figure is 2.38; as for `c1ccc(SSc2ccccc2)cc1`, 4.41. `CC(CN(C)C)CN1c2ccccc2Sc2ccccc21` (centres undefined) came in with a logP of 4.71. Still for that read-out and setting: next, `NC(=O)c1ccc(O)cc1`: 0.33. As to `COc1ccc(C(N)=O)cc1/N=N/N(C)C`, the logP stood at 0.44.

Consider `O=Cc1cccs1`, for which the lipophilicity (logP) is 1.02.

In turn, `CN(C)/N=N/c1cccc(C(F)(F)F)c1` displayed a lipophilicity (logP) of 3.78. `O=C(CNC(=O)c1ccccc1)Oc1cccc(C(F)(F)F)c1` returned a lipophilicity (logP) of 3.3.

As for `O=c1[nH]cc(Cl)c(=O)[nH]1`, the logP is -0.35. As for `O=[N+]([O-])c1ccsc1`, the logP came to 1.55. Regarding `O=[N+]([O-])c1ccc(C=Cc2nccn2Cc2ccccc2)o1`, the logP worked out at 1.55. On the same count and under the same terms, as for `CCNC(=O)Nc1ccccc1`, the figure is 1.64. Consider `O=[N+]([O-])c1ccc(C=Cc2ncccn2)o1`, for which the lipophilicity (logP) was found to be 1.34. `O=C1C2(Cl)C3(Cl)C4(Cl)C(Cl)(Cl)C5(Cl)C3(Cl)C1(Cl)C5(Cl)C24Cl` (centres undefined): the logP stood at 5.41. In turn, `CC(=O)Nc1cccc(I)c1` came in with a logP of 2.64.

Consider `Cc1nnc(SCc2ccccc2)s1`, for which the lipophilicity (logP) was determined as 2.35. For the molecule `COC(=O)c1cccc(NC(C)=O)c1`, the log partition coefficient (logP) turned out to be 1.46. In the case of `CC1(C)O[C@@H]2C[C@H]3[C@@H]4C[C@H](F)C5=CC(=O)C=C[C@]5(C)[C@@]4(F)[C@@H](O)C[C@]3(C)[C@]2(C(=O)CO)O1`, the log partition coefficient (logP) was 2.48.

In the case of `O=C(O)COc1ccc(Cl)c(Cl)c1`, the logP was determined as 2.81.

With `CCCCC(=Cc1ccccc1)C(=O)NC(C)CC` (centres undefined), the logP was 4.07.

Regarding `CCCCC`, the logP was found to be 3.23. Turning to `NC(N)=Nc1ccccc1`, the log partition coefficient (logP) amounted to 0.53.

In turn, `Cc1ccccn1` returned a logP of 1.11. For the molecule `O=C1c2ccccc2C(=O)C1(O)O`, the log partition coefficient (logP) worked out at 0.67.

The molecule `CNC(=S)NC12CC3CC(CC(C3)C1)C2` came in with a logP of 2.67. `CCCC(C(=O)OCCN(CC)CC)(c1ccccc1)c1ccccc1` returned a logP of 4.65. For the molecule `O=c1nccc[nH]1`, the logP is -1.62. Regarding `CCCc1ccncc1`, the log partition coefficient (logP) was determined as 2.1. `CCC1(CCC(C)C)C(=O)NC(=S)NC1=O` registered a logP of 2.98. In turn, `COc1cc(C(=O)C=CN2CC=CC2)cc(OC)c1OC` displayed a lipophilicity (logP) of 1.77. On to `ONc1ccccc1`, for which the lipophilicity (logP) worked out at 0.79.

`[O-][n+]1ccccc1SCc1ccccc1` registered a logP of 1.24.

`O=[N+]([O-])c1ccc2[nH]c(CCCCCc3nc4cc([N+](=O)[O-])ccc4[nH]3)nc2c1` gave a log partition coefficient (logP) of 1.97.

In the case of `CCOC(=O)NC1=C(N2CC2)C(=O)C(NC(=O)OCC)=C(N2CC2)C1=O`, the logP was found to be 0.05. `O=C1OC(c2ccccc2)c2ccccc21` (centres undefined) came in with a logP of 2.64. Molecule `CCCCSc1ccccc1OC(=O)NC` showed a lipophilicity (logP) of 2.98. For `O=C1C(=O)c2cccc3cccc1c23`, the lipophilicity (logP) came out at 1.95. As for `O=C(O)c1cccs1`, the logP turned out to be 1.57. Consider `Cc1ccc(C(N)=O)cc1`, for which the logP came to 1.18.

Regarding `CCCCNC(N)=O`, the logP is 0.41.

The same data set, now with this note: pH 1.0.
The term logD denotes lipophilicity at a set pH, counting ionised and neutral species. High values mean a more lipophilic compound, low ones a more hydrophilic compound. For `N#Cc1c[nH]c(=O)[nH]c1=O`, the logD was -0.93.

Staying with this data set, now noted: pH 3.0.
As for `CC(=O)OCC1=C(C(=O)O)N2C(=O)[C@@H](NC(=O)CBr)[C@H]2SC1`, the log distribution coefficient (logD) is -0.7.

The same data set, now with this note: pH 5.0.
With `CC(C)c1ccc(O)c(=O)cc1`, the logD came out at 1.89.

The data set is the same for the next values; noted with them: pH 7.0.
As for `CN1CC(C)(C)C(=O)c2ccccc21`, the logD is 2.72.

Still in this data set, the particulars now being: pH 7.4.
As to `c1cc2n(n1)CCN2`, the logD was -0.25. For `Cc1c(N(C)C)c(=O)n(C)c(=O)n1C`, the logD worked out at 0.99.

Molecule `Cc1c2oc3c(C)ccc(C(=O)NC4C(=O)NC(C(C)C)C(=O)N5CCCC5C(=O)N(C)CC(=O)N(C)C(C(C)C)C(=O)OC4C)c3nc-2c(C(=O)NC2C(=O)NC(C(C)C)C(=O)N3CCCC3C(=O)N(C)CC(=O)N(C)C(C(C)C)C(=O)OC2C)c(N)c1=O` (centres undefined) (I: TVP[Sar][NMeV] / II: TVP[Sar][NMeV]; ester I:1-I:C, II:1-II:C; linker I:N-II:N via Actinocin(9to1); configuration not given here) yielded a pH-dependent lipophilicity (logD) of 3.21. With `Nc1n[nH]c(N)n1`, the pH-dependent lipophilicity (logD) is -1.61.

Staying with this data set, now noted: pH 13.0.
Molecule `CN(C)CC(O)c1ccccc1` (centres undefined) returned a logD of 1.54.

(Values after the SangsterLogP compilation.)
